Data: publication PMC9963937, “Synergistic Combination of Irinotecan and Rapamycin Orally Delivered by Nanoemulsion for Enhancing Therapeutic Efficacy of Pancreatic Cancer” (Pharmaceutics, 2023)
Where two headings read alike, the source gives them in different places.

Legend:
[1] = In vitro release from LBSNENP, USP Apparatus 2 dissolution; format: physicochemical; settings: endpoint (60 min)
Description: The contents of irinotecan and rapamycin in LBSNENPir and LBSNENPra were detected through HPLC. To determine the irinotecan content, we used the Waters 600E HPLC system with the SunFire C18 column (4.6 mm × 250 mm I.D., 5 μm; Waters). The mobile phase consisted of 10 mM phosphate buffer (pH 3.0)/acetonitrile/tetrahydrofuran (65/35/2 v/v), the flow rate was 0.8 mL/min, the column was maintained at 40 °C, the injection volume was 20 µL, and the fluorescence detector was set at the excitation and emission wavelengths of 370 and 470 nm, respectively. To determine the rapamycin content, we used the JASCO HPLC system with the Inersil ODS-2 C18 column (4.0 mm × 150 mm I.D., 5 μm). The mobile phase was a mixture of acetonitrile and water (20/80 v/v), the flow rate was 1.0 mL/min, the column was maintained at 55 °C, the injection volume was 100 µL, and the UV detector was set at the wavelength of 278 nm. Each data point came from the mean of at least three individual trials. The assay method was also well validated before. […]
The in vitro release of irinotecan and rapamycin from LBSNENP was examined using the dissolution method on United States Pharmacopeia (USP) Apparatus 2 (VK7000, Vankel, UK). […] The contents of irinotecan and rapamycin were determined through HPLC as described in the earlier text. […]

[2] = system: MIA PaCa-2 pancreatic cancer cell line; test: MTT cell viability assay; format: cell-based; settings: Homo sapiens, read-out: IC50 against MIA PaCa-2 cells
Description: To evaluate the cytotoxicity and combination effects of rapamycin and silymarin as well as free irinotecan, we performed the 3-(4,5-dimethylthiazol-2-yl)-2,5-diphenyl-2H-tetrazolium bromide (MTT) assay by using the MIA PaCa-2 pancreatic cancer cell line. Briefly, the cells were seeded in a 96-well plate at a density of 3 × 10^4 cells/well and incubated at 37 °C with 5% CO2 for 24 h. After 24 h, the cells were treated with different concentrations of free irinotecan (0–300 µM), rapamycin (0–300 µM), SN38 (0–300 nM), and silymarin (0–1000 µM). To determine the combination effect, the cells were treated with different ratios of irinotecan/rapamycin and SN38/rapamycin (1/0.3, 1/0.5, 1/1, and 1/2) and irinotecan/silymarin and SN38/silymarin (1/1 and 1/2). All the cells were incubated with the drugs for 24–48 h. Then, the MTT reagent and dimethyl sulfoxide were added for the formation and the dissolution of purple formazan crystals. The absorbance of each well was measured at 550 nm on a Cytation 3 cell imaging multimode reader (BioTek, Winooski, VT, USA). The half-maximal inhibitory concentration (IC50) and combination index (CI) of the drugs were calculated using CompuSyn Sofware (Paramus, NJ, USA) through the Chou–Talalay method. In the Chou–Talalay method, the CI values of <0.9, >1.1, and 0.9–1.1 indicated synergistic, antagonistic, and additive effects, respectively. Each data point was the mean of at least six individual experiments.

Compound	dissolution percentage of raw irinotecan powder at the endpoint ([1]; buffer pH 1.2, 37 °C, 50 rpm)	IC50 ([2]; MIA PaCa-2, 24 h) [µM]	IC50 ([2]; MIA PaCa-2, 48 h) [µM]	dissolution percentage of raw rapamycin powder at the endpoint ([1]; 0.4% sodium lauryl sulfate solution, 37 °C, 100 rpm) [%]
CCc1c2c(nc3ccc(OC(=O)N4CCC(N5CCCCC5)CC4)cc13)-c1cc3c(c(=O)n1C2)COC(=O)[C@]3(O)CC [irinotecan, Irinotecan]	approximately 63%	4.78 ± 9.42	12.2 ± 4.56	
CO[C@H]1C[C@@H]2CC[C@@H](C)[C@@](O)(O2)C(=O)C(=O)N2CCCC[C@H]2C(=O)O[C@H]([C@H](C)C[C@@H]2CC[C@@H](O)[C@H](OC)C2)CC(=O)[C@H](C)/C=C(\C)[C@@H](O)[C@@H](OC)C(=O)[C@H](C)C[C@H](C)/C=C/C=C/C=C/1C [rapamycin, Rapamycin]		2.98 ± 0.97	3.88 ± 1.17	~32
